Results as given in patent publication US20110092600A1, “PHARMACEUTICAL COMPOSITIONS COMPRISING AMINOCYCLOHEXANE DERIVATIVES” (MERZ PHARMA GMBH & KGAA, priority 2008, published 2011).

Assays:
[1] = Isothermal titration calorimetry (ITC) of complexation with HPBCD; assay type: physicochemical
Method: (§1) Complexes between neramexane mesylate and either hydroxypropyl-beta-cyclodextrin (HPBCD; grade: Kleptose™ HPB) or hydroxypropyl-gamma-cyclodextrin (HPGCD; grade: Cavasol™ W8 HP Pharma) are formed and investigated by isothermal titration calorimetry (ITC). The experiments are performed on a Microcal MCS-ITC instrument. The procedure consists of iteratively adding small portions of a test solution (here: a neramexane mesylate solution) through a motorised microlitre syringe to a receptor solution (here: a cyclodextrin solution) located in the calorimeter. Upon complexation, an exothermic or endothermic signal is produced which represents the sum of all thermal events including complexation itself, but also heats of dilution or (de)protonation. The titration curves are evaluated with the Microcal Origin software V2.9 with its original data evaluation module for titration calorimetric evaluations.
(§2) The experiments are carried out using aqueous phosphate buffer of pH 6 as a solvent. Solutions of neramexane mesylate, HPBCD, and HPGCD of various concentrations are prepared, and a number of titrations are conducted using different maximal molar ratios of neramexane to cyclodextrin (after complete addition of the drug substance), ranging from 1.25 to 5. Titrations with solvent solutions alone and in combination with cyclodextrin solution are performed to obtain curves indicating the heats of dilution, which may be used as baseline data for the correction of the complexation curves.

[2] = Isothermal titration calorimetry (ITC) of complexation with HPGCD; assay type: physicochemical
Method: as §1, §2

[3] = final molar ratio 1.25, aqueous phosphate buffer pH 6
[4] = final molar ratio of neramexane to cyclodextrin 5, aqueous phosphate buffer pH 6
[5] = final molar ratio 1.8, aqueous phosphate buffer pH 6

thermal nature of complexation ([1]; aqueous phosphate buffer pH 6): exothermic
equilibrium constant [1, 3]: 413 M⁻¹
stoichiometry of binding (of neramexane per cyclodextrin molecule) [1, 3]: 0.4
equilibrium constant [1, 4]: 788 M⁻¹
stoichiometry of binding (of neramexane per cyclodextrin molecule) [1, 4]: 0.84
thermal nature of complexation ([2]; aqueous phosphate buffer pH 6): endothermic
equilibrium constant [2, 5]: 112 M⁻¹
stoichiometry of binding [2, 5]: 0.93
SMILES: CC1(C)CC(C)(C)CC(C)(N)C1 [neramexane, 1-amino-1,3,3,5,5-pentamethylcyclohexane]
